Measurements reported in ChEMBL document CHEMBL1201862, “PubChem BioAssay data set” (2004).
The source made the active and inactive calls.

What was measured:
[1] = toxicity toward HepG2 liver cells – cell-based, plate reader, cherry-pick, antagonist series, cytotoxicity control, dose response (AID 743416); assay type: functional
Streptococcus [2] = assay: GAS UMAA2166 growth inhibition – luminescence, BacTiterGlo, counter-screen for streptokinase expression inhibitor project, dose response (AID 1915); assay type: functional, organism-based;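 also: potency for reduction of bacterial viability or growth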
[3] = target: Sphingosine 1-phosphate receptor 3 (Homo sapiens, UniProt Q99500); assay: Dose response cell-based high throughput screening assay for antagonists of the Sphingosine 1-Phosphate Receptor 3 (S1P3). [Related pubchem assays: 1429, 485 ]; assay type: functional
[4] = system: Streptococcus sp. 'group A'; assay: Streptococcus pyogenes SK(-)GAS viability under kanamycin – luminescence, BacTiterGlo, confirmation, counter-screen for streptokinase expression inhibitor project, dose response (AID 1900); assay type: functional, organism-based
[5] = viability loss in HEK293 cells – cell-based, plate reader, cherry-picked samples, cytotoxicity control, dose response (AID 743446); assay type: functional
Streptokinase A = target: T1, Streptokinase A (Streptococcus pyogenes serotype M1, UniProt P10520); assay: viability-normalized secreted streptokinase activity reduction – plasminogen activation absorbance, OD405, dose response (AID 1914); assay type: functional, Streptococcus pyogenes M1 GAS;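 also: secreted streptokinase activity via plasminogen activation per viability signal from cell pellet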
T1 sequence (P10520 whole entry): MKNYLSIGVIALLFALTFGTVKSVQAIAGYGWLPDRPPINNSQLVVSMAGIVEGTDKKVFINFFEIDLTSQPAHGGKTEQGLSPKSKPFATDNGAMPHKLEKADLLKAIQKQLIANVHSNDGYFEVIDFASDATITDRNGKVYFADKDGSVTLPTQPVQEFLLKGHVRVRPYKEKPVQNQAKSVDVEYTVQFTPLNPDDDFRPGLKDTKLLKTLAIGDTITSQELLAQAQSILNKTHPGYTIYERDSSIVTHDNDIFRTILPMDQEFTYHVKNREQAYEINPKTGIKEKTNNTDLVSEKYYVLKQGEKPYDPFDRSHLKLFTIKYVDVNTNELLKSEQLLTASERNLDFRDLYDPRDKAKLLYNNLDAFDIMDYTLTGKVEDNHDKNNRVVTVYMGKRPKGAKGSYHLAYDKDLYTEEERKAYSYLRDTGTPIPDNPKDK

[6] = target: 5-hydroxytryptamine receptor 1E (Homo sapiens, UniProt P28566); assay: Counterscreen assay for S1P3 antagonists: Dose response cell-based high throughput screening assay to identify antagonists of the 5-Hydroxytryptamine Receptor Subtype 1E (5HT1E). [Related pubchem assays: 1429, 485 ]; assay type: functional
[7] = A549 cell cytotoxicity, dose response, cytotoxicity control, plate reader, cherry-pick, antagonist series (AID 743412); assay type: functional, cell-based
[8] = blockers of bursicon-stimulated LGR2 cAMP reporter – cell-based, HEK293, CRE-luciferase reporter, cherry pick, set 2, dose response (AID 743343); assay type: functional;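 also: transfected cells were stimulated with diluted bursicon conditioned medium after compound addition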
[9] = blockade of melanocortin 4 receptor signaling – cell-based, plate reader, cherry pick, counter-screen for LGR2 antagonist project, dose response (AID 743444); assay type: functional;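 also: transfected HEK 293 cells stimulated with alpha-MSH peptide; potency of inhibitors of the alpha-MSH evoked signal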
[10] = target: Mothers against decapentaplegic homolog 3 (Homo sapiens, UniProt P84022); assay: blockers of Smad3 complex formation in lysate – cell lysate, secondary confirmation, chemiluminescent ELISA, HEK293 lysate, dose response (AID 1058); assay type: functional
Streptococcus [11] = assay: Luminescence Microorganism-Based Dose Response Follow up to Identify Compounds Cytotoxic to Streptococcus. [Related pubchem assays: 1677 (Project Summary), 1915, 1914, 1902 (Retest at Dose), 1900 (Counter Screen), 1662 (Primary HTS)]; assay type: functional, organism-based
[12] = target: Transitional endoplasmic reticulum ATPase (Homo sapiens, UniProt P55072, C522A); assay: C522A mutant p97 ATPase inhibitors, dose response, counter-screen for p97 inhibitor project, biochemical, luminescence (AID 1544)
[13] = target: Transitional endoplasmic reticulum ATPase (Homo sapiens, UniProt P55072); assay: p97 ATPase inhibitors, dose response, biochemical (AID 1534)
[14] = HEK-293T viability loss after treatment – luminescence, T-cell screen hits, cytotoxicity control for TCR NF-kB inhibitor project, dose response (AID 489026); assay type: functional, cell-based;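 also: cells exposed to compound about 14 hours before the viability readout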
[15] = Luminescence-based dose response cell-based high throughput screening assay for cytotoxic compounds using the IEC-6 intestinal epithelial cell line. [Related pubchem assays: 1858 (Summary AID.), 1825 (Counterscreen.), 1907 (Confirmation screen.)]; assay type: functional
cells = assay type: functional, cell-based
[16] = luciferase reporter signal suppression in cells – H4 neuroglioma cells, luminescence, dose response (AID 1990); assay type: functional, cell-based
[17] = alpha-synuclein stem-loop translation blockers – luminescence, H4 neuroglioblastoma cells, dose confirmation, confirmation (AID 2454); assay type: functional, cell-based;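 also: H4 neuroglioblastoma cells carrying an alpha-synuclein 5'UTR luciferase reporter; potency for inhibition of the luciferase signal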
[18] = luciferase reporter signal reduction – luminescence, H4-C neuroglioblastoma cells, dose response (AID 2458); assay type: functional, cell-based;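 also: H4 neuroglioblastoma cells stably carrying a luciferase reporter gene fusion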
[19] = alpha-synuclein stem-loop luciferase translation blockers – H4 neuroglioma cells, luminescence, confirmation (AID 1988); assay type: functional, cell-based

Chain of Mothers against decapentaplegic homolog 3 (P84022 whole entry): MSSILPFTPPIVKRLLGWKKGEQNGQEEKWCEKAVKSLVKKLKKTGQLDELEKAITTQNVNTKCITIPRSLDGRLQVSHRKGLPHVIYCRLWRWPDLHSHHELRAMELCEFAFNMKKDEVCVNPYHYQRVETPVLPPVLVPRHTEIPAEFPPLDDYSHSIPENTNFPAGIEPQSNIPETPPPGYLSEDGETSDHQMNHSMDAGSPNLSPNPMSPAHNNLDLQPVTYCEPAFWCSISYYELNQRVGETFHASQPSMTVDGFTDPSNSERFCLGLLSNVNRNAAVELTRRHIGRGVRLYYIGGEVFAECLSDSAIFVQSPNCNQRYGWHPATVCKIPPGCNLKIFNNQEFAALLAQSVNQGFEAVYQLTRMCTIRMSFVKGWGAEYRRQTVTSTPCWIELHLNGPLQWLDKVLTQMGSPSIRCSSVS
Chain of 5-hydroxytryptamine receptor 1E (P28566 whole entry): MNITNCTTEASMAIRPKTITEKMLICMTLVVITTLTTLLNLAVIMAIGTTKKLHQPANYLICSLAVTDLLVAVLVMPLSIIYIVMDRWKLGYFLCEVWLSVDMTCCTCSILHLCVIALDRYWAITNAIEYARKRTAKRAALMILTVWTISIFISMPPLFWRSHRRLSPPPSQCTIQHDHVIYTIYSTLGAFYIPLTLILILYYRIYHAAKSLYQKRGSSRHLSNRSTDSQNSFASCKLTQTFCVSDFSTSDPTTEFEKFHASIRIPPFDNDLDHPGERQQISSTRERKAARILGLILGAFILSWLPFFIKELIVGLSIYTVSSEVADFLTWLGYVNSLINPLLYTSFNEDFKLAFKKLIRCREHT
Chain of Transitional endoplasmic reticulum ATPase (Homo sapiens, UniProt P55072) (P55072 whole entry): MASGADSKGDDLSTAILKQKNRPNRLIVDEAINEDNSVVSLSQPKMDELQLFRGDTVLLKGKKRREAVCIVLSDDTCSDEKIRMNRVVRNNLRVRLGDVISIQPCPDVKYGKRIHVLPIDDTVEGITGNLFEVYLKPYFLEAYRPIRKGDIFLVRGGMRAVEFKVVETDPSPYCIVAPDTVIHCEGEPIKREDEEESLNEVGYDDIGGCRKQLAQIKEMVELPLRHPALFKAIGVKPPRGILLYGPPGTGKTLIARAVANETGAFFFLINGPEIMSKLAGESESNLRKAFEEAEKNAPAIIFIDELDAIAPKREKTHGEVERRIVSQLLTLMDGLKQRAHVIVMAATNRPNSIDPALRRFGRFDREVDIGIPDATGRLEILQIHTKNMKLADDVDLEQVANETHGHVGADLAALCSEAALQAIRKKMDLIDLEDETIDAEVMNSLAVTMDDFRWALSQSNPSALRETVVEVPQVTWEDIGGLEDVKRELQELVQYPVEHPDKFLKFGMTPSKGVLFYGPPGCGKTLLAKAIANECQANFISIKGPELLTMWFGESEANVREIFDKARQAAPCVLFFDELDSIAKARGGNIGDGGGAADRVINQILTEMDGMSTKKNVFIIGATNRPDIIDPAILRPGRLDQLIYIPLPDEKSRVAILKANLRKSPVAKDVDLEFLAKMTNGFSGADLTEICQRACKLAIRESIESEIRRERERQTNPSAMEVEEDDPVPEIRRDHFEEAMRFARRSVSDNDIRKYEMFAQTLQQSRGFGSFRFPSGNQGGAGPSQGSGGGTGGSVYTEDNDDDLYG
Chain of Transitional endoplasmic reticulum ATPase (Homo sapiens, UniProt P55072, C522A) (P55072 2-806 C522A limits assumed): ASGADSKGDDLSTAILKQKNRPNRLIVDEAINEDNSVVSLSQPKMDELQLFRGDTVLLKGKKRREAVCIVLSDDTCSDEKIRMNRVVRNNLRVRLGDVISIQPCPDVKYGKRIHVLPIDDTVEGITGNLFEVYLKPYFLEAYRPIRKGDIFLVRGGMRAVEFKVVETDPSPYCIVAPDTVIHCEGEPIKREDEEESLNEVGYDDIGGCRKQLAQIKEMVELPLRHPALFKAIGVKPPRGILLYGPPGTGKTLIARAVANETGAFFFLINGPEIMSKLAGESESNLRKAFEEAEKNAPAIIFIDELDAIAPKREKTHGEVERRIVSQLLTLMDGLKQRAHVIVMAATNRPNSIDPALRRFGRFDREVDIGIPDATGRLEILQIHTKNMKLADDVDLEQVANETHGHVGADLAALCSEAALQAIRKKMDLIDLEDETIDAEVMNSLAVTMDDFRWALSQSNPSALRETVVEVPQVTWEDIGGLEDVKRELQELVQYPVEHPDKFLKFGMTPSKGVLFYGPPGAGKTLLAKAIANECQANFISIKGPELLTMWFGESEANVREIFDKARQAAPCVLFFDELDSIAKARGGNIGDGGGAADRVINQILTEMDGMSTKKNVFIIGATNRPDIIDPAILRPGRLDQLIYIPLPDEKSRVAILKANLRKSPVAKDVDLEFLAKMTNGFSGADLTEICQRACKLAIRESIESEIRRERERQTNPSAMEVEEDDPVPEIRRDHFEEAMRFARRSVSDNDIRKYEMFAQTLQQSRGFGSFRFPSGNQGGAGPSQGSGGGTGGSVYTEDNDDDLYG
Chain of Sphingosine 1-phosphate receptor 3 (Q99500 whole entry): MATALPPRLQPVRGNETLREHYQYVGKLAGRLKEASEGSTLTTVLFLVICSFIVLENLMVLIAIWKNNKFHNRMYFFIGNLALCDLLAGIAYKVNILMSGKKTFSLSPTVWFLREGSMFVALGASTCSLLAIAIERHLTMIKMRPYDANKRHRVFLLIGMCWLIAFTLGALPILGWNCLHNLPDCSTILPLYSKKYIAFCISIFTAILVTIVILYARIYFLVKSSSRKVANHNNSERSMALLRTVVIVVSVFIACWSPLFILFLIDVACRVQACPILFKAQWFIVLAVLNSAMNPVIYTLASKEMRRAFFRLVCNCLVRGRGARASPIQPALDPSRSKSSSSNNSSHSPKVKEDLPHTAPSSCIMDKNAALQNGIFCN

## Cc1cccc(Cn2nc(C(C)(C)C)cc2C(=O)Nc2ccc(F)cc2)c1
[1]
  AC50: > 52 µM (inactive)
Streptococcus [2]
  EC50: 16.3 µM (active)
[3]
  IC50: 5.22 µM (active)
[4]
  EC50: 7.66 µM (active)
[5]
  AC50: 8.76 µM (active)
Streptokinase A
  EC50: 1.9 µM (active)
[6]
  IC50: 3.86 µM (active)
[7]
  AC50: 26.5 µM (active)
[8]
  AC50: 14.6 µM (active)
[9]
  AC50: 26.4 µM (active)

## O=C1OC2(c3ccc(O)c(O)c3Oc3c2ccc(O)c3O)c2c(Cl)c(Cl)c(Cl)c(Cl)c21
[10]
  IC50: 12.4 µM (active)

## O=C(c1ccc(F)cc1)n1c2ccccc2c2ccccc21
Streptococcus [11]
  EC50: > 500 µM (not active)

## COc1ccc(/C=N/Nc2nnc(-c3ccccc3)c(O)n2)cc1
[12]
  IC50: > 50 µM (not active)
[13]
  IC50: > 50 µM (not active)

## Cc1ccc(Nc2nc(-c3c(C)nc4ccccn34)cs2)cc1
[14]
  IC50: > 80 µM (inactive)
[15]
  IC50: 0.0895 µM (active)
cells
  EC50: 0.027 µM (active)
[16]
  EC50: < 0.1 µM (active)
[17]
  EC50: 0.013 µM (active)
[18]
  EC50: 0.021 µM (active)
[19]
  EC50: < 0.1 µM (active)
